Results from patent US7498408B2, “Ryanodine receptor polypeptides” (E. I. du Pont de Nemours and Company, priority 2002, dated 2009).

Legend:
[1] = system: native cockroach ryanodine receptors (in embryonic neuronal cells); assay: Calcium release assay, calcium imaging in primary embryonic cockroach neuronal cells; type: cell-based, Periplaneta americana; conditions: for Calcium Release (P. americana): known ryanodine receptor agents, native receptors in embryonic neuronal cells, result in words
From the text: Embryonic neuronal cultures of the American cockroach Periplaneta americana were established, with minor modifications, following the method of Beadle and Lees (1988) (in Cell Culture Approaches to Invertebrate Neuroscience, Academic Press, New York, pp 123-127). Briefly, 26-27-day old oothecae were collected, surface-sterilized and cut open along a line one-third of the distance below the dorsal midline. The heads were removed and placed in Schneider's Drosophila medium (Invitrogen Life Technologies™, Carlsbad, Calif.). Using fine forceps 40 brains were individually removed and placed in a small glass vial containing 700 μl of ‘5+4’ medium (‘5+4’ medium contained 5 parts Schneider's Drosophila medium plus 4 parts roach Basal Medium Eagle, with Earle's salts (BME, Sigma™, St. Louis, Mo.). Roach BME (with Earle's salts) contained 5 parts Hepes (1 M), 1 part penicillin/streptomycin and 44 parts BME (with Earle's salts). ‘5+4’ medium was made fresh and sterile filtered (0.2 μm filter) just prior to use). The brains were dissociated by sequential trituration as follows: 1) brains were passed through a standard Pasteur pipette 10 times; 2) the resulting tissue suspension was passed an additional 5 times through a Pasteur pipet with tip flamed to about half of its original diameter; 3) a final 5 passes were performed using a Pasteur pipet with tip flamed to slightly less than half of its original diameter. A repeat pipettor was used to dispense a 5 μl volume of the resulting suspension into the center of each well of a 96-well, glass-bottom plate previously coated with poly-L-lysine (0.2 mg/ml solution). Cells attached to the bottom of the wells during a 50 min incubation at 27-29° C. 150 ul of a 1:1 mixture of Leibovitz's L-15 medium and Yunker's modified Grace's medium was added, and plates were maintained in a humid incubator at 27-29° C. until use. After cells were allowed to attach wells were filled with a 1:1 mixture of Leibovitz's L-15 medium and Yunker's modified Grace's medium (Leibovitz's L-15 and Grace's medium were obtained from Invitrogen Life Technologies™, Carlsbad, Calif. and Yunker's modified Grace's medium was made with Grace's medium modified by addition of 5 mg L-methionine, 10 mg L-alanine, 182 mg MgCl26H20, 1 g Albumin Fraction V, 7 ml Fetal bovine serum, 10 ml Chick embryo extract, 2 ml Penicillin/Streptomycin, and 2 mg 20-hydroxyecdysone (prepared in ethanol prior to addition) to a final volume of 100 ml and sterile filtered (0.2 μm filter)). Cells were maintained in a high humidity incubator at 29° C. until testing.
Cells were rinsed in standard physiological saline having the following composition (mM): NaCl 190; CaCl2 9; KCl 3.1; probenicid 1; Tris buffer 10; pH 7.2. Cells were then bathed in standard physiological saline containing the calcium sensitive fluoroprobe Fluo4 AM (2 μM) and Pluronic F127 (0.002%) for 45 min. Cells were then rinsed in standard physiological saline for at least 15 min prior to testing. Within the hour prior to testing, standard physiological saline was replaced with standard physiological saline containing the organic cation channel blocker pimozide (10 μM), to inhibit influx of external calcium through voltage-gated calcium channels. The 96-well plate was placed on a PriorTm motorized stage mounted onto a Nikon Diaphot microscope and imaged using a 20× Fluor objective (NA 0.75). Individual wells from the 96-well plate were sequentially excited with light at 495 nm, and the emitted fluorescence at 530 nm was detected using a Hamamatsu ORCA ER digital camera with 2 pixel binning (image size 672×512 pixels).
Acquisition control, image processing and image analysis were conducted using Universal Imaging Corporation's MetaMorph™ imaging software (Universal Imaging, West Chester, Pa.). A series of 3 “control” images were acquired for each well. Experimental compounds were added followed by acquisition of 4 “experimental” images for each well. […]

[2] = biological target: T1, recombinant Drosophila melanogaster ryanodine receptor (expressed in Sf9 cells) (Drosophila melanogaster, UniProt Q24498); type: cell-based; conditions: for Calcium Release (D. melanogaster): known ryanodine receptor agents, transiently or stably expressed in Sf9 cells, result in words
T1 construct: His tag + attB1 + Lox footprint (N-terminal vector extension; present only if the Cre-Lox vector was the one used) (N); expressed in transfected cells
From the text: (§1) Several drops of a suspension of recombinant Spodoptera frugiperda cell line, Sf9, transiently expressing insect ryanodine receptors were placed on a poly-L-lysine-coated coverslip and allowed to attach. Cells were then rinsed in physiological saline having the following composition (mM): NaCl 130; KCl 5.4; MgCl2 1.2; CaCl2 1.0; NaHCO3 4.2; NaH2P04 7.3; Glucose 10; Sucrose 63; MES 20; pH 6.3. Cells were then bathed in physiological saline containing the calcium sensitive fluoroprobe, Fura-2 AM (2 μM), and Pluronic F127 (0.002%) for 30 min. Cells were rinsed in standard physiololgical saline for at least 15 min prior to testing. Testing was conducted in standard physiological saline, as the cell lines are devoid of functional voltage-gated calcium channels.
Cell-attached coverslips were placed in a sealed chamber with physiological saline continuously perfused across the cells using a peristaltic pump. Test compounds solubilized in physiological saline were applied by switching the perfusate source.
(§2) For studies involving the stable recombinant Spodoptera frugiperda cell line, Sf9, (other cell lines could also be used such as Sf21, S2, etc) expressing an insect ryanodine receptor from Drosophila melanogaster, or Heliothis virescens (alternatively receptors from other species such as Myzus persicae, Peregrinus maidis, Aphis gossypii, etc) were grown in T75 (or other appropriate sized) flasks in supplemented Grace's insect medium. Cells were maintained in an incubator at 22° C. until testing. Cells were suspension-loaded with the calcium sensitive fluoroprobe, Fura-2 AM (1-2 μM) and Pluronic F127 (0.002%) in culture medium for 30 minutes under agitation. Cells were then centrifuged and the pellet resuspended in physiological saline having the following composition (mM): NaCl 130; KCl 5.4; MgCl2 1.2; CaCl2 1.0; NaHCO3 4.2; NaH2P04 7.3; Glucose 10; Sucrose 63; MES 20; pH 6.3 at approximately 150,000-200,000 cells per well (96-well plate). After a 30 minute equilibration period the cell plate was tested using a Molecular Devices' FlexStation™ system with dual wavelength excitation (340 and 380 nm) and fluorescence emission measured at 510 nm. Test and control samples were added using integrated fluidics and the intracellular calcium monitored over a 2 minute period.

[3] = biological target: cockroach ryanodine receptor (roach femoral muscle membranes) (Periplaneta americana, UniProt Z9HFG3YSF4); assay: Radioligand displacement ([3H]-GN analog Cpd 1) from roach femoral muscle membranes; conditions: for IC50: read-out: Displacement IC50 (nM) P. americana, displacement of [3H]-Cpd 1, roach muscle membranes, 60 min at 32° C.; for Radioligand Displacement (P. americana): known ryanodine receptor agents, result in words
cockroach ryanodine receptor (roach femoral muscle membranes), sequence (Z9HFG3YSF4 1-5141): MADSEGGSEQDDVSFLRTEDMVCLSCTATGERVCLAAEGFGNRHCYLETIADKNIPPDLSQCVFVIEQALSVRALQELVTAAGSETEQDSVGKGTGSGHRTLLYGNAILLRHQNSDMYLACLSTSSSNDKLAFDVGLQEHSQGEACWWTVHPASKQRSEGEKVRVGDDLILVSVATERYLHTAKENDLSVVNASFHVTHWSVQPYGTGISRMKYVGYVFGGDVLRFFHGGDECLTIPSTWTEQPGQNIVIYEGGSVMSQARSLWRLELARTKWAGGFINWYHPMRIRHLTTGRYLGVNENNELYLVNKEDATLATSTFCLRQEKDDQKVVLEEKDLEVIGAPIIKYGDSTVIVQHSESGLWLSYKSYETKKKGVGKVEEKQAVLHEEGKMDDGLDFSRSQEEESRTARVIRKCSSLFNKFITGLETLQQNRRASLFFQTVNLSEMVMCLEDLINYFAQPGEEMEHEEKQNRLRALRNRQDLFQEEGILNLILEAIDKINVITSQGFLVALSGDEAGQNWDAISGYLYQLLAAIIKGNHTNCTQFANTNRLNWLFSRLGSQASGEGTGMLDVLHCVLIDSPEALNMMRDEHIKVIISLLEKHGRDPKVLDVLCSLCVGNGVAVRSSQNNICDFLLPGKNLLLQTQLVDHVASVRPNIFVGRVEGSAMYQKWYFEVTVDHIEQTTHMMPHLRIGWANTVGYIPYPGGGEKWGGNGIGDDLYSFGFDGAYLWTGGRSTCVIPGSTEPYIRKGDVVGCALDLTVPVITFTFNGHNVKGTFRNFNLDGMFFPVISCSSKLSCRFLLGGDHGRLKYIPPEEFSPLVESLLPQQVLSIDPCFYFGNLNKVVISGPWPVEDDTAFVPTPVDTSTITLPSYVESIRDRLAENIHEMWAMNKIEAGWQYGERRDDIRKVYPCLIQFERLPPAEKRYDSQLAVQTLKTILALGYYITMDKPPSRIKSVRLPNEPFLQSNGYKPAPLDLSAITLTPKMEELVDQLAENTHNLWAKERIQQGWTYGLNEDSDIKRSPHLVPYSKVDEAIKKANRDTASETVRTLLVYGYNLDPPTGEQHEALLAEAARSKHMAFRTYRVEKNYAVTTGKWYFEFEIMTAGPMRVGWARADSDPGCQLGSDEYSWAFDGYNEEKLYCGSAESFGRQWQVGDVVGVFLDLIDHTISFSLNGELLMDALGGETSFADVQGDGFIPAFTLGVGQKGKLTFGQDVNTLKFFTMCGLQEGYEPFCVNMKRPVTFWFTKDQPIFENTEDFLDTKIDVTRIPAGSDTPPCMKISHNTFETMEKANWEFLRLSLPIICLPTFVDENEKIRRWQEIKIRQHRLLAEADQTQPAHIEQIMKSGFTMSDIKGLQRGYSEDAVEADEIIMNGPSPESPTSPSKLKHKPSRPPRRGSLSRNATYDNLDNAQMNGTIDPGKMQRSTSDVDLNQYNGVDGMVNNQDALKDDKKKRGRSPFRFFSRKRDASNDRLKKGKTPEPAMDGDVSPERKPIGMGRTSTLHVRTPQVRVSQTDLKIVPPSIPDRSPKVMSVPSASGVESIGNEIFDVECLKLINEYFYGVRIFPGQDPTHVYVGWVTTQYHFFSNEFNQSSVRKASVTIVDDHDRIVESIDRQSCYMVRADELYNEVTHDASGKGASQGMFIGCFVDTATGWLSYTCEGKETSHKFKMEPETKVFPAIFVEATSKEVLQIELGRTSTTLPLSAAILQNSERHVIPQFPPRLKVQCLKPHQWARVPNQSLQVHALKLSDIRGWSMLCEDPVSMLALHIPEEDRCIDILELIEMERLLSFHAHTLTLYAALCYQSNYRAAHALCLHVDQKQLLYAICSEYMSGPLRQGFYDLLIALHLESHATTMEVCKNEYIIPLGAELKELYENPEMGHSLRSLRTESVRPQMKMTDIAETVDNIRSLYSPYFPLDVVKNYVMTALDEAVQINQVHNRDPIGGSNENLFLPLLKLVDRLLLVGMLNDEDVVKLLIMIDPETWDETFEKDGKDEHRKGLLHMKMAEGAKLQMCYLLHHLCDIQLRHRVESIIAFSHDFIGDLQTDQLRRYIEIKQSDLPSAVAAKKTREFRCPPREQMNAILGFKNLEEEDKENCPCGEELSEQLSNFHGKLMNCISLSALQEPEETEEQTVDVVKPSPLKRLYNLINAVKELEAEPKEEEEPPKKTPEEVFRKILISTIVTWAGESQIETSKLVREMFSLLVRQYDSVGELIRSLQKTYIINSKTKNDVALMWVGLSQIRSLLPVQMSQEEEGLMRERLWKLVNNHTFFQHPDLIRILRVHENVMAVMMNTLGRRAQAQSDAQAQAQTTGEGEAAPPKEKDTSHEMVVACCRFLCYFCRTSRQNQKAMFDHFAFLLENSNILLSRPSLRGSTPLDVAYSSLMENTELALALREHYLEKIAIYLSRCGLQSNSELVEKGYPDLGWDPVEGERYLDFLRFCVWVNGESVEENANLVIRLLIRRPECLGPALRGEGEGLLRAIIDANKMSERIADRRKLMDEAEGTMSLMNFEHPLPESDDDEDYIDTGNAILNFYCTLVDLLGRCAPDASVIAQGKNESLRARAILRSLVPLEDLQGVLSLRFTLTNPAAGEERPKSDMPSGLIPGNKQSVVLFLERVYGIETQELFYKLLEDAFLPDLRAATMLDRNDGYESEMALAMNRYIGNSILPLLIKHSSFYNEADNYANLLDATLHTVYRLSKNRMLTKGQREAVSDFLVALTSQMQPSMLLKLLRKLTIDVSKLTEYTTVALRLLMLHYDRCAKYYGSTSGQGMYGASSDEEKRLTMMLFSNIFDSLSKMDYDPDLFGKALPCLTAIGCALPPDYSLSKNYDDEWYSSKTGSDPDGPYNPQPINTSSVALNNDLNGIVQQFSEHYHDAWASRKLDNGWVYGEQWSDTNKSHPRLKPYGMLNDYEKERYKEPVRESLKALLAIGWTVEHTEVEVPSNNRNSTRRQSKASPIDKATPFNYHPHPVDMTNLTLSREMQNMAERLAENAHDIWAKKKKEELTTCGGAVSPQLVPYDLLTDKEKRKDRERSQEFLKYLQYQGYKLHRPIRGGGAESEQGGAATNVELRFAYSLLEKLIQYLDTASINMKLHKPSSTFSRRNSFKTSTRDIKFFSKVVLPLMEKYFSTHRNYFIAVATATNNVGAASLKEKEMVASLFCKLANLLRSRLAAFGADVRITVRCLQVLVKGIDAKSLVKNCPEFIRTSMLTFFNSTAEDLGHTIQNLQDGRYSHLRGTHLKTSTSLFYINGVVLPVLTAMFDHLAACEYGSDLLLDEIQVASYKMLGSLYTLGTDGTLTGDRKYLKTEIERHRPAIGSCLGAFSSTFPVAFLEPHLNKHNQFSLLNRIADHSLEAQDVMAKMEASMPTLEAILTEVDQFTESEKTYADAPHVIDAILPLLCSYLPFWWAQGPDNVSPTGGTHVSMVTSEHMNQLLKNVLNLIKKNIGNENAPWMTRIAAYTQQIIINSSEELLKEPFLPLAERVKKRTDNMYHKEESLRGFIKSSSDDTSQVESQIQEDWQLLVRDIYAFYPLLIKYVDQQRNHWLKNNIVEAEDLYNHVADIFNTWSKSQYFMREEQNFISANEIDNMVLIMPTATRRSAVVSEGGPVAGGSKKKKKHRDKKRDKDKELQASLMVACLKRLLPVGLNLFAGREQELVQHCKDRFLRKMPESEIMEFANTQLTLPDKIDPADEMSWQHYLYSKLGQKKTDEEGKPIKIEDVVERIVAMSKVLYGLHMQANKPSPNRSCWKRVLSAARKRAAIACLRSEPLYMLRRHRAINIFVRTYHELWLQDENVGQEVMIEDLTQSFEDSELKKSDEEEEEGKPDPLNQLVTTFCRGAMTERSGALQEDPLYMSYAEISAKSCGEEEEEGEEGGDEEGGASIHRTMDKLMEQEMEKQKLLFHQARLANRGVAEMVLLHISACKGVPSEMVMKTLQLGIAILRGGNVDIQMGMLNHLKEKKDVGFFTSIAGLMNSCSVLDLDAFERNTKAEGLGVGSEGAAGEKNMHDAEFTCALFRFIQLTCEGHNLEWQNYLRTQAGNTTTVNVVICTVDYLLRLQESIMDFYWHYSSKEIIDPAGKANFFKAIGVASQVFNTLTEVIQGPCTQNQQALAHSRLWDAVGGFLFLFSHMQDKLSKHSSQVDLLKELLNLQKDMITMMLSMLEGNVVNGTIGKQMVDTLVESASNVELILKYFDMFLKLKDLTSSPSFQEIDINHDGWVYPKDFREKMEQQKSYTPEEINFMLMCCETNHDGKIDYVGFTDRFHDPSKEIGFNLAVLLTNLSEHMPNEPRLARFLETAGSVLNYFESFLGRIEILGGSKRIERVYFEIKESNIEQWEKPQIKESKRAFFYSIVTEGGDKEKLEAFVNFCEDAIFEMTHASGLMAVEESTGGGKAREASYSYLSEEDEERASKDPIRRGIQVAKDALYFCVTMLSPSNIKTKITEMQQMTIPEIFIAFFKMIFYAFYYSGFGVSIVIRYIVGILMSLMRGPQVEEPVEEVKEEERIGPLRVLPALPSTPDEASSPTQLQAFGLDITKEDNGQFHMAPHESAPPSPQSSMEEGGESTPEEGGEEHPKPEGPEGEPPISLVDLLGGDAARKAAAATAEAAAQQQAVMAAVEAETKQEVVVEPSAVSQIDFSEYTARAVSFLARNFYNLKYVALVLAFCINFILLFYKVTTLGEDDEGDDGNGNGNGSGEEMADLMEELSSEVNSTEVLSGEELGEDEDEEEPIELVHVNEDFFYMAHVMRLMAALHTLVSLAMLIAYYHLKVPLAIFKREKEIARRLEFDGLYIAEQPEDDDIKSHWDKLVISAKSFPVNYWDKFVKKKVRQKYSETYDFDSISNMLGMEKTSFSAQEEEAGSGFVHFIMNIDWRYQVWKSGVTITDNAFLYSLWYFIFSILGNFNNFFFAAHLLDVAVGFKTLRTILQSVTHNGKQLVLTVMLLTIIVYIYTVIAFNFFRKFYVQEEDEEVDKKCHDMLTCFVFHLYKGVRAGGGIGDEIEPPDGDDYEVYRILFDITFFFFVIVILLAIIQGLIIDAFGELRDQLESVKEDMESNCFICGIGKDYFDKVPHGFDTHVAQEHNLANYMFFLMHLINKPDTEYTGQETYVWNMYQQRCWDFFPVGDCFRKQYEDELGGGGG
Method: Mid and hind legs from 6-9 week old cockroaches were excised and immediately placed in liquid nitrogen. Excised legs could be stored at −80° C. for several months, if necessary, prior to further fractionation. Typically, membrane preparations started with approximately 55 g (wet weight) of excised legs. All subsequent steps were carried out at 4° C.
The legs were homogenized on ice using a Polytron (Brinkmann Instruments, Westbury, N.Y.) for 2 min at Setting #3. In order to remove all fragments of cuticle, the homogenate was first passed through two layers of cheesecloth and then through one layer of glass wool overlaid on two layers of cheesecloth. On occasion, the cheesecloth clogged with particulates prior to passing all material through. In such cases, fresh cheesecloth (and glass wool) was used for the remainder of the suspension. […] The supernatant was collected and centrifuged for 30 min at 30,000×gmax. The resulting pellet was resuspended in buffer A (1.5 M KCl, 0.3 M sucrose, 0.5 mM CaCl2, 20 mM Tris-HCl, pH 8.0). The membrane suspension was homogenized by hand (about 25 strokes) using a glass-teflon homogenizer. […] Subsequently, the membrane suspension was adjusted to 4 μg protein/μg by addition of buffer A and then stored in 1 ml aliquots at −80° C.
The assay was begun by addition of 25 μl of roach muscle membranes at 2 μg/μl (prepared by thawing and addition of an equal volume of buffer B), and incubation was carried out for 60 min at 32° C. Assays were carried out in triplicate.
The compound was allowed to pre-incubate with the membranes for 10 min at 32° C. […] Assays were carried out in triplicate.
Following incubation, assays were quenched with ice-cold buffer B and immediately filtered on pre-wefted Unifilter 96 GF/B filter microplates using a Unifilter 96 Harvester (PerkinElmer™, Boston, Mass.). Each assay well was then washed 10 times with buffer B, and collected on the same filter microplate. The filter microplates were then placed in a vacuum oven at 32° C. for 3 h, following which 50 μl of Microscint 0 (PerkinElmer™, Boston, Mass.) was added to each well. Plates were then heat sealed and counted using a Topcount microplate scintillation counter (PerkinElmer™, Boston, Mass.).

[4] = system: recombinant Heliothis virescens ryanodine receptor (expressed in Sf9 cells); assay: Calcium release assay in Sf9 cells expressing recombinant Heliothis virescens ryanodine receptor; type: cell-based; conditions: caffeine 10 mM; for calcium responses, Sf9 stably expressing H. virescens ryanodine receptor (FIG. 5): Compound 14 1 μM, Fura-2 AM imaging
From the text: as §1
(§3) Imaging studies were conducted using a Nikon Diaphot microscope with a 40× oil immersion objective (NA 1.3) Image acquisition and processing was performed using the MetaFluor™ imaging system from Universal Imaging Corporation (West Chester, Pa.) Calcium calibration was carried out using the Grynkiewicz equation with a dissociation constant (Kd) of 145 nM for Fura-2 (Grynkiewicz et al., 1985). Cell-attached coverslips were placed in a sealed chamber with physiological saline continuously perfused across the cells using a peristaltic pump. Test compounds solubilized in physiological saline were applied by switching the perfusate source.
as §2

[5] = system: control Sf9 cells without DNA / wild type Sf9; assay: Calcium response in control or wild-type Sf9 cells lacking recombinant receptor; type: cell-based, Spodoptera frugiperda; conditions: for calcium responses in control cells without DNA (FIG. 3): Compound 16 10 and 100 nM
From the text: as §1, §3, §2

Row | Structure (SMILES) | Calcium Release Threshold (nM) P. americana [1] [nM] | IC50 [3] [nM] | other results
1 | Cc1cccc(C(=O)NC(C)C)c1NC(=O)c1cc(C(F)(F)F)nn1-c1ccccc1Cl [Cpd 2] | <300 | < 300 | Calcium Release Threshold (nM) D. melanogaster [2]: <300 nM
2 | CNC(=O)c1cc(Br)cc(C)c1NC(=O)c1cc(C(F)(F)F)nn1-c1ncccc1Cl [Cpd 15] | <300 | < 300 | –
3 | CNC(=O)c1cc(Cl)cc(C)c1NC(=O)c1cc(C(F)(F)F)nn1-c1ncccc1Cl [Cpd 11] | <300 | < 300 | Calcium Release Threshold (nM) D. melanogaster [2]: <300 nM
4 | Cc1cc(Br)cc(C(=O)NC(C)C)c1NC(=O)c1cc(C(F)(F)F)nn1-c1ncccc1Cl [Cpd 9] | <300 | < 300 | –
5 | CNC(=O)c1cc(Cl)cc(C)c1NC(=O)c1cc(Br)nn1-c1ncccc1Cl [Cpd 14] | <300 | < 300 | Calcium Release Threshold (nM) D. melanogaster [2]: <300 nM; calcium responses, Sf9 stably expressing H. virescens ryanodine receptor (FIG. 5) [4]: calcium responses elicited
6 | COc1cccc2c1C(=O)c1c(O)c3c(c(O)c1C2=O)C[C@@](O)(C(=O)CO)C[C@@H]3O[C@H]1C[C@H](N)[C@H](O)[C@H](C)O1.Cl [Doxorubicin, reference compound] | – | – | Calcium Release (P. americana) [1]: Inactive
7 | CNC(=O)c1cccc(C)c1NC(=O)c1cc(C(F)(F)F)nn1-c1ncccc1Cl [Cpd 6] | <300 | < 300 | –
8 | CNC(=O)c1cc(Cl)cc(C)c1NC(=O)c1cc(Cl)nn1-c1ncccc1Cl [Cpd 17] | <300 | < 300 | –
9 | Cc1cc(Cl)cc(C(=O)NC(C)C)c1NC(=O)c1cc(Cl)nn1-c1ncccc1Cl [Cpd 16] | <300 | < 300 | Calcium Release Threshold (nM) D. melanogaster [2]: <300 nM; calcium responses, Sf9 transiently expressing D. melanogaster ryanodine receptor (FIG. 3) ([2]; 96 hr post-transfection, caffeine 10 mM, Compound 16 10 and 100 nM): calcium responses elicited; calcium responses in control cells without DNA (FIG. 3) ([5]; caffeine 10 mM): No significant calcium responses
10 | Cc1cccc(C(=O)NC(C)C)c1NC(=O)c1cc(Cl)nn1-c1ncccc1Cl [Cpd 8] | <300 | < 300 | –
11 | CCNC(=O)c1cc(Br)cc(Br)c1NC(=O)c1cc(C(F)(F)F)nn1-c1ncccc1Cl [Cpd 18] | – | < 300 | –
12 | Cc1cc(Br)cc(C(=O)NCC(C)C)c1NC(=O)c1cc(C(F)(F)F)nn1-c1ccccc1Cl [Cpd 3] | – | < 300 | –
13 | Cn1c(=O)c2c(ncn2C)n(C)c1=O [Caffeine] | – | – | Calcium Release (P. americana) [1]: Agonist; cytosolic [Ca2+], Sf9 transiently expressing H. virescens ryanodine receptor (FIG. 4) ([4]; 72 hr post-transfection, Cpd 5 3 μM): increase in cytosolic [Ca^2+]; calcium responses, Sf9 stably expressing H. virescens ryanodine receptor (FIG. 5) [4]: calcium responses elicited; caffeine dose response, wild-type Sf9 cells (FIG. 6) ([5]; Sf9-WT, FlexStation, Fura-2): insensitive; response of lipid only (-DNA) or non-transfected cells ([5]; caffeine 10 mM): do not exhibit significant response; calcium responses in control cells without DNA (FIG. 4) ([5]; caffeine 10 mM, Compound 5 3 μM): No significant calcium responses; calcium responses in control cells without DNA (FIG. 3) ([5]; caffeine 10 mM): No significant calcium responses
14 | N.N.N.N.N.N.N.N.N.N.N.N.N.N.[Cl-].[Cl-].[Cl-].[Cl-].[Cl-].[Cl-].[O-2].[O-2].[Ru+3].[Ru+3].[Ru+4] [Ruthenium Red, reference compound] | – | – | Calcium Release (P. americana) [1]: Inactive; Calcium Release (D. melanogaster) [2]: Antagonist; Radioligand Displacement (P. americana) [3]: Displacer
15 | Cc1cccc(C(=O)NC(C)C)c1NC(=O)c1cc(Br)nn1-c1ncccc1Cl [Cpd 7] | <300 | < 300 | –
16 | Oc1c(Br)cc2[nH]c3cnccc3c2c1Br [Bromoeudistomin D, reference compound] | – | – | Calcium Release (P. americana) [1]: Agonist
17 | CC(C)[C@@]1(O)[C@@H](OC(=O)c2ccc[nH]2)[C@@]2(O)[C@@]3(C)C[C@]4(O)O[C@@]5([C@H](O)[C@@H](C)CC[C@]35O)[C@@]2(O)[C@@]14C [Ryanodine] | – | – | Calcium Release (P. americana) [1]: Antagonist; Calcium Release (D. melanogaster) [2]: Antagonist; Radioligand Displacement (P. americana) [3]: Inactive
18 | Cc1cc(Cl)cc(C(=O)NC(C)C)c1NC(=O)c1cc(C(F)(F)F)nn1-c1ncccc1Cl [Cpd 10] | <300 | < 300 | –
19 | [3H]c1cc(C)c(NC(=O)c2cc(C(F)(F)F)nn2-c2ccccc2F)c(C(=O)NC(C)C)c1 [Cpd 1, 1-(2-Fluorophenyl)-N-[2-methyl-4-tritio-6-[[(1-methylethyl)amino]carbonyl]phenyl]-3-(trifluoromethyl)-1H-pyrazole-5-carboxamide] | <1000 | < 300 | Calcium Release Threshold (nM) D. melanogaster [2]: <300 nM
20 | Cc1cc(Br)cc(C(=O)NC(C)C)c1NC(=O)c1cc(Br)nn1-c1ncccc1Cl [Cpd 12] | <300 | < 300 | –
21 | Cc1cc(Cl)cc(C(=O)NC(C)C)c1NC(=O)c1cc(Br)nn1-c1ncccc1Cl [Cpd 13] | – | < 300 | –
